Source: ChEMBL document CHEMBL5728233, “PSMA imaging agents” (2021)

Molecular target: Glutamate carboxypeptidase 2 (Homo sapiens, UniProt Q04609)
Experiment: Enzymatic Assay for In Vitro Evaluation of PSMA Inhibitors: The inhibitory activity of all compounds was determined using a fluorescent assay of human PSMA activity. The enzyme used in the assay was purchased from R&D Systems and stored at −80° C. The PSMA activity was assayed in a two-step process. In the first step, aliquots of enzyme (0.2 μg/mL) were incubated for 1 h at 37° C. in 50 mM HEPES, 0.1 M NaCl, pH 7.5, in the presence of 20 μM NAAG and the given inhibitor, in a volume of 250 μL, to allow for the accumulation of glutamate produced in the PSMA reaction. In the second step, the amount of accumulated glutamate was measured using the OPA reaction, and the fluorescence was read with a SpectraMax fluorescent plate reader using excitation at 330 nm and emission at 450 nm. The final Ki values for each inhibitor were calculated from the respective IC50 values using the Cheng and Prusoff equation.

Sequence of Glutamate carboxypeptidase 2 (Q04609 whole entry): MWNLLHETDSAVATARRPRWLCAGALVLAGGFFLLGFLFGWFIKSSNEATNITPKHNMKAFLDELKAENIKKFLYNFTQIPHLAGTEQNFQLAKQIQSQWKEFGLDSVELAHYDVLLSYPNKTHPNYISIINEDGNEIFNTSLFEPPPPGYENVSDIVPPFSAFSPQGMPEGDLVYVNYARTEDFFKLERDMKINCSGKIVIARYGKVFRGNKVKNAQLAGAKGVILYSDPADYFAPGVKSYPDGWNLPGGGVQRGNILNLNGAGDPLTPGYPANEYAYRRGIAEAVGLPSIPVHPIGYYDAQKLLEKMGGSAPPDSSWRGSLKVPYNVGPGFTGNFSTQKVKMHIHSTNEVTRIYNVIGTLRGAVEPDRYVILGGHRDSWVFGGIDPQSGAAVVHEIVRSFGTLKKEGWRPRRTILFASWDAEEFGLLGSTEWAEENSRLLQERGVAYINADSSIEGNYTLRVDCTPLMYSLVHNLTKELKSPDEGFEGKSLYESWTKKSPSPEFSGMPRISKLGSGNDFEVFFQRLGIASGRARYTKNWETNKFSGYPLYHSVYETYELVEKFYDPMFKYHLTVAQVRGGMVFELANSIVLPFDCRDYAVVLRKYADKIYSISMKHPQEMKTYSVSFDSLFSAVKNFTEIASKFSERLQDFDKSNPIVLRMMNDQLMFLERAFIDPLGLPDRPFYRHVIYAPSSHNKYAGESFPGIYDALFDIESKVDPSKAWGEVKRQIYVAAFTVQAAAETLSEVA

- Ki: 0.625 µM
SMILES: CN(C(=O)N[C@@H](CCC(=O)O)C(=O)O)[C@@H](CCCCNC(=O)CCCCCn1cc(CCCF)nn1)C(=O)O
